Data reported in publication PMC6515479, “An Investigation on Glucuronidation Metabolite Identification, Isozyme Contribution, and Species Differences of GL-V9 In Vitro and In Vivo” (Molecules, 2019).

Tests used:
rUGT2B7 = target: T1, rUGT2B7 (Homo sapiens, UniProt P16662); assay: UGT phenotyping of GL-V9 glucuronidation, rUGT2B7; assay type: in vitro ADME; conditions: GL-V9 0.5, 1, 5 μM, 37 °C, 1 h
T1 construct: purchased Corning (Woburn, MA, USA)
T1 sequence (P16662 24-529): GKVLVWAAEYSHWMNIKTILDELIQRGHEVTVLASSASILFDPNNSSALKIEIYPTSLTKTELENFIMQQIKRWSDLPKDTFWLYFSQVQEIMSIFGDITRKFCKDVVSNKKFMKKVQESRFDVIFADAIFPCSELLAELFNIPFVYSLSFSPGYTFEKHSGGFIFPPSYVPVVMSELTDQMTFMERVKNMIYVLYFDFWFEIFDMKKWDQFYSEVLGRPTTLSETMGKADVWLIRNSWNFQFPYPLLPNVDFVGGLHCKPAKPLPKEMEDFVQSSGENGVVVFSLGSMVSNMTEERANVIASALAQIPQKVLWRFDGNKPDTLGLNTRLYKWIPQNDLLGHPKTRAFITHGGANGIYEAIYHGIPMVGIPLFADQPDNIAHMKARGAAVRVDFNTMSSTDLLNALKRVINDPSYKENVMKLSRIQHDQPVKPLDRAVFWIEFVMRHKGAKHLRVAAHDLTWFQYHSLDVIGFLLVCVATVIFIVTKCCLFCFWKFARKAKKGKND
Procedure: (§1) The composition of the incubation system (200 μL) contained liver microsomes of different species (0.1 mg protein/mL), 5 mM saccharolactone (D-saccharic acid 1,4-lactone monohydrate), 10 mM MgCl2, alamethicin (50 μg/mg protein), Tris-HCl buffer (50 mM, pH 7.4) and GL-V9 (1 μM). After 5 min of preincubation at 37 °C, UDPGA (5 mM) was added to initiate the phase II reaction. Control incubation samples were performed without UDPGA or without substrates (GL-V9). The reaction was terminated by addition of ice-cold methanol (three volumes) after incubation for 1 h at 37 °C. Samples were vortexed, centrifuged at 21,500× g for 10 min and then stored at 4 °C until HPLC-UV-TripleTOF analysis. To confirm that these metabolites are conjugates resulting from glucuronidation reaction, enzymatic hydrolysis of samples was processed. β-glucuronidase (100 KU, Sigma) was added and the hydrolysis was performed overnight at 37 °C. The control samples were carried out without β-glucuronidase under the same condition.
(§2) Twelve human recombinant UGT isoforms (rUGT1A1, rUGT1A3, rUGT1A4, rUGT1A6, rUGT1A7, rUGT1A8, rUGT1A9, rUGT1A10, rUGT2B4, rUGT2B7, rUGT2B15, and rUGT2B17) were employed to identify the main UGT enzyme(s) responsible for glucuronidation of GL-V9 under mixture conditions as described in Section 4.3. […]

rUGT2B4 = target: T2, rUGT2B4 (Homo sapiens, UniProt P06133); assay: UGT phenotyping of GL-V9 glucuronidation, rUGT2B4; assay type: in vitro ADME; conditions: GL-V9 0.5, 1, 5 μM, 37 °C, 1 h
T2 construct: purchased Corning (Woburn, MA, USA)
T2 sequence (P06133 24-528): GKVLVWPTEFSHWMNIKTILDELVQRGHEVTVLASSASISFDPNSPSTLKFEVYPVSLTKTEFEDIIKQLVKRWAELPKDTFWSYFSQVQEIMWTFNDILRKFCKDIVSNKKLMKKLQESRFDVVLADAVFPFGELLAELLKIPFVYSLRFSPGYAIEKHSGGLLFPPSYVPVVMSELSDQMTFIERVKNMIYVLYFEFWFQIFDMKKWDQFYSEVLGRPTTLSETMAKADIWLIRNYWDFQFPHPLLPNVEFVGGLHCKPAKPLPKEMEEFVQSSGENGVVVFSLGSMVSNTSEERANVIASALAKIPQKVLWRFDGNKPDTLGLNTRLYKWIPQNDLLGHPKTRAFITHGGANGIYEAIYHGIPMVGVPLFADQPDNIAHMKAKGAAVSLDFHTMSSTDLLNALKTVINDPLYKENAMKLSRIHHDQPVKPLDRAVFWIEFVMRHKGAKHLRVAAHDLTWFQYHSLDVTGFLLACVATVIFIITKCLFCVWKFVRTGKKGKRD
Procedure: as §1, §2

[1] = cited from earlier work
rUGT1A9 = target: T3, rUGT1A9 (Homo sapiens, UniProt O60656); assay: Recombinant enzyme kinetics of GL-V9 glucuronidation, rUGT1A9; assay type: in vitro ADME; conditions: formation of 5-O-glucuronide GL-V9; rUGT1A9, protein 0.06 mg/mL, 1 h at 37 °C; mean ± SD, n = 3
T3 construct: purchased Corning (Woburn, MA, USA)
T3 sequence (O60656 26-530): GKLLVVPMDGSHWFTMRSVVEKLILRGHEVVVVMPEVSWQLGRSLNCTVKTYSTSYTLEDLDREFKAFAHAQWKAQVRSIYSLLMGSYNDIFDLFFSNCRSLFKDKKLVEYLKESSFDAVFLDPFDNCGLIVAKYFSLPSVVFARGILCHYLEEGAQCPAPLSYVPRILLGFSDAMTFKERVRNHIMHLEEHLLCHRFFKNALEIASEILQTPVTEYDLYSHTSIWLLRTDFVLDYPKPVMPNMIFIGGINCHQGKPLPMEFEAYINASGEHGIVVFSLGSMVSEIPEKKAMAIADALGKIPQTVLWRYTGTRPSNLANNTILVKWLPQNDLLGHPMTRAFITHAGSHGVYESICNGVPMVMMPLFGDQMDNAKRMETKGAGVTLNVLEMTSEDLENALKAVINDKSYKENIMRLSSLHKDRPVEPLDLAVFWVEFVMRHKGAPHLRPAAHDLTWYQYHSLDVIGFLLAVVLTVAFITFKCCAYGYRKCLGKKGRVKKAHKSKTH

[2] = GL-V9 in rat plasma, oral (gavage) GL-V9 50 mg/kg, n=6, mean ± SD
[3] = GL-V9 in rats, oral GL-V9 50 mg/kg, n=6, mean ± SD

Catalytic activity in the production of 5-O-glucuronide GL-V9 (rUGT2B7): did not show apparent catalytic activity | Catalytic activity in the production of 5-O-glucuronide GL-V9 (rUGT2B4): did not show apparent catalytic activity | Vmax (rUGT1A9): 148.1 ± 2.56 pmol/min/mg
SMILES: COc1c(OCCCCN2CCCC2)cc(O)c2c(=O)cc(-c3ccccc3)oc12 [GL-V9]
AUC(0-t) [1, 2]: 1212.06 ± 246.47 ng·h/mL | Cmax [1, 2]: 167.33 ± 50.05 ng/mL | T1/2 [1, 2]: 3.08 ± 1.05 h | AUC(0-inf) ([1]; GL-V9 in rat plasma, oral GL-V9 50 mg/kg, n=6, mean ± SD): 1256.04 ± 271.82 ng·h/mL | Tmax ([1]; GL-V9 in rat plasma, oral GL-V9 50 mg/kg, n=6): 0.31 to 0.77 h | F ([1]; GL-V9 in rats, oral GL-V9 50 mg/kg): 8.54% | CL [1, 3]: 689.7 ± 147 mL/min/kg | MRT0-t [1, 3]: 7.70 ± 0.91 h | Vd [1, 3]: 181.06 ± 63.57 L/kg
